In PMC11054282, “Structural Investigations on 2-Amidobenzimidazole Derivatives as New Inhibitors of Protein Kinase CK1 Delta” (Pharmaceuticals, 2024) one finds melting point and IC50 data, which are given here for seven compounds.

Values joined by “and” are separate entries in the source; they are usually repeats but may differ in a detail not shown here. Equal entries are not always repeated. Where two headings read alike, the source gives them in different places. Bounds are passed on as bounds.

The target of one series is T1, truncated CK1δ (Homo sapiens, UniProt P48730).
T1 construct: truncated CK1δ, recombinant human, GST-tagged, aa 1-294, Merck Millipore; GST; purchased Merck Millipore, Merck KGaA, Darmstadt, Germany
T1 sequence (P48730 1-294): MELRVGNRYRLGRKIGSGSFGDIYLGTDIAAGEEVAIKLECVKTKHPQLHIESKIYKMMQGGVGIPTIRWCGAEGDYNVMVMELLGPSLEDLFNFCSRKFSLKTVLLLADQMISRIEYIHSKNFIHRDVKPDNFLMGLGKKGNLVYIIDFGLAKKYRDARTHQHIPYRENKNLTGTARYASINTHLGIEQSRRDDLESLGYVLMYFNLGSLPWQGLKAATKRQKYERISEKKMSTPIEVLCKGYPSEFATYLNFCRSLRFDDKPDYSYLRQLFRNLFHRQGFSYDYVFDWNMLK
Put plainly: CK1δ luminescent kinase assay (Kinase Glo kit). Format: biochemical. The note with it: truncated recombinant human CK1δ (aa 1-294), casein substrate, 2 μM ATP; mean ± SE of three independent experiments in duplicate. As for the experimental part:
The newly synthesized derivatives 1–32 were tested on truncated CK1δ using the luminescent kinase assay Kinase Glo® KIT (Promega Italy S.r.l., Milan, Italy), and the results are reported in Table 1 and Table 2. Derivatives were tested at a fixed dose of 40 μM; then, those showing a residual kinase activity percentage lower than 50% were tested at 10 μM.
The inhibitory activity of synthesized compounds on CK1δ has been carried out following a procedure for a luminescence-based assay (KinaseGlo® kit, Promega Italy Srl, Milan, Italy) already reported in the literature. Luminescent assays were performed in white 96-well plates in a 40 μL final volume. The buffer used is a milliq water solution of 50 mM HEPES (pH 7.5), 1 mM EDTA, 1 mM EGTA, and 15 mM MgCl2. In a typical assay, 10 μL of inhibitor solution (desired concentrations were obtained by diluting in buffer a starting 10 mM solution in DMSO) and 10 μL of enzyme solution (truncated CK1δ, recombinant human, GST-tagged, aa 1-294, Merck Millipore, Merck KGaA, Darmstadt, Germany) were added to the well, followed by 20 μL of assay buffer containing casein substrate (casein solution from bovine milk, 5% in water, Sigma-Aldrich, Merck KGaA, Darmstadt, Germany) and ATP, at a final concentration of 0.05% and 2 μM, respectively. The final enzyme concentration was 6.5 nM. […] After 60 min of incubation at 30 °C, the enzymatic reactions were stopped with the addition of 40 μL of KinaseGlo reagent (Promega Italy Srl, Milan, Italy). The luminescence signal (relative light unit, RLU) was recorded after 10 min at 25 °C using a Tecan Infinite M100. […] IC50 values were evaluated using ten different inhibitor concentrations ranging from 100 to 0.026 μM. Data were analyzed using Excel and GraphPad Prism software (version 8.0).
In general terms: Kinase-Glo measures the ATP left after a reaction by luminescence.

Another series has as its system CK1ε. The note with it: cited from earlier work.
The test system of a further series is CK1δ. The note with it: cited from earlier work.

On to `O=C(Cc1cc[nH]n1)Nc1nc2cc(-n3cncn3)ccc2[nH]1` [Compound 30, N-(5(6)-(1H-1,2,4-triazol-1-yl)-1H-benzimidazol-2-yl)(1H-pyrazol-3(5)-yl)acetamide], for which the melting point was in the range of 269 to 271 °C. Also, the IC50 at truncated CK1δ is < 15 µM and 2.59 µM. With `O=C(Cc1cc[nH]n1)Nc1nc2cc(-c3nnn[nH]3)ccc2[nH]1` [Compound 31, N-(5(6)-(1H-tetrazol-5-yl)-1H-benzimidazol-2-yl)(1H-pyrazol-3(5)-yl)acetamide], the melting point was more than 300 °C. Besides, at truncated CK1δ, the IC50 was < 15 µM and 1.54 µM.

Turning to `COc1ccc(/C=C/C(=O)Nc2cc(-c3nc(SC)[nH]c3-c3ccc(F)cc3)ccn2)c(OC)c1` [III], the IC50 in the series with CK1ε (compound III, Figure 1) is 0.073 µM; in the series with CK1δ (compound III, Figure 1, read-out: CK1δ IC50), 0.004 µM. For `COc1ccc(/C=C/C(=O)Nc2cc(-c3c(-c4ccc(F)cc4)noc3C(C)C)ccn2)c(OC)c1` [II], the IC50 with CK1ε (compound II, Figure 1) was 2.52 µM; in the series on CK1δ (compound II, Figure 1, read-out: CK1δ IC50), 0.033 µM. `Fc1cccc(-n2cnc3c(NCc4nc5ccc(Cl)cc5[nH]4)nc(N4CCNCC4)nc32)c1` [IV]: in the series with CK1δ (compound IV (SR 2890), Figure 1, read-out: CK1δ IC50), the IC50 is 0.005 µM. In the case of `Nc1nccc(-c2c(-c3ccc(F)cc3)ncn2C2CCCCC2)n1` [PF-670462], the IC50 with CK1ε (PF-670462) was […]; in the series with CK1δ (PF-670462, read-out: CK1δ IC50), […]; in the series with CK1δ (PF-670462 as positive control, value in the method section, read-out: IC50) it was […]. On to `O=C(Nc1nc2cc(C(F)(F)F)ccc2[nH]1)c1csc(NC(=O)c2ccccc2OC(F)(F)F)n1` [V], for which, in the series on CK1δ (Bischof-5, Figure 2, read-out: CK1δ IC50), the IC50 was […].

The melting point is the temperature of the solid-liquid transition. Usually IC50 stands for the concentration that gives 50% inhibition.
